Tested on: 323965-272-R-J2-PDC complex spheroid viability
Test: Anticancer human tumor 323965-272-R-J2-PDC patient-derived pancreatic carcinoma cell line growth inhibition [CLK]
Conditions: for IC50: curve of first compound; for viability, T/C: stronger effect = lower value
In short: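 Multi-cell-type spheroids combined patient-derived tumor cells with HUVEC endothelial cells and human mesenchymal stem cells. Paired agents were dosed in half-log steps down from about clinical Cmax, or from 10 microM where Cmax was unknown.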

[1] = second compound 0.0316 µM, first compound 0.00949 µM
[2] = second compound 0.0316 µM, first compound 0.03 µM
[3] = second compound 0.0316 µM, first compound 0.0949 µM
[4] = second compound 0.0316 µM, first compound 0.3 µM
[5] = second compound 0.1 µM, first compound 0.00949 µM
[6] = second compound 0.1 µM, first compound 0.03 µM
[7] = second compound 0.1 µM, first compound 0.0949 µM
[8] = second compound 0.1 µM, first compound 0.3 µM
[9] = second compound 0.316 µM, first compound 0.00949 µM
[10] = second compound 0.316 µM, first compound 0.03 µM
[11] = second compound 0.316 µM, first compound 0.0949 µM
[12] = second compound 0.316 µM, first compound 0.3 µM
[13] = second compound 1 µM, first compound 0.00949 µM
[14] = second compound 1 µM, first compound 0.03 µM
[15] = second compound 1 µM, first compound 0.0949 µM
[16] = second compound 1 µM, first compound 0.3 µM
[17] = second compound 3.16 µM, first compound 0.00949 µM
[18] = second compound 3.16 µM, first compound 0.03 µM
[19] = second compound 3.16 µM, first compound 0.0949 µM
[20] = second compound 3.16 µM, first compound 0.3 µM
[21] = second compound 10 µM, first compound 0.00949 µM
[22] = second compound 10 µM, first compound 0.03 µM
[23] = second compound 10 µM, first compound 0.0949 µM
[24] = second compound 10 µM, first compound 0.3 µM
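Also: spheroids exposed to agents for seven days before readout.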
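For viability, T/C in this document: percent of DMSO vehicle control wells so 100% = untreated growth.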

Structure (SMILES): CC(C)CC(NC(=O)C(Cc1ccccc1)NC(=O)c1cnccn1)B(O)O (stereo unspecified) + CN1CCN(c2cc(C(=O)Nc3cc4cc(-c5cnn(C)c5)ccc4cn3)ccn2)CC1
- IC50 (second compound 0.0316 µM): 4.13 nM
- IC50 (second compound 0.1 µM): 4.13 nM
- IC50 (second compound 0.316 µM): < 0.949 nM
- IC50 (second compound 1 µM): < 0.949 nM
- IC50 (second compound 3.16 µM): < 0.949 nM
- IC50 (second compound 10 µM): < 0.949 nM
- viability, T/C (second compound 0.0316 µM, first compound 0.000949 µM): 102%
- viability, T/C (second compound 0.0316 µM, first compound 0.003 µM): 67.1%
- viability, T/C [1]: 5.27%
- viability, T/C [2]: 0.67%
- viability, T/C [3]: 0.27%
- viability, T/C [4]: 0.2%
- viability, T/C (second compound 0.1 µM, first compound 0.000949 µM): 70.2%
- viability, T/C (second compound 0.1 µM, first compound 0.003 µM): 67.7%
- viability, T/C [5]: 4.08%
- viability, T/C [6]: 0.54%
- viability, T/C [7]: 0.24%
- viability, T/C [8]: 0.21%
- viability, T/C (second compound 0.316 µM, first compound 0.000949 µM): 27.6%
- viability, T/C (second compound 0.316 µM, first compound 0.003 µM): 27.3%
- viability, T/C [9]: 2.6%
- viability, T/C [10]: 0.27%
- viability, T/C [11]: 0.18%
- viability, T/C [12]: 0.3%
- viability, T/C (second compound 1 µM, first compound 0.000949 µM): 5.63%
- viability, T/C (second compound 1 µM, first compound 0.003 µM): 1.53%
- viability, T/C [13]: 0.21%
- viability, T/C [14]: 0.19%
- viability, T/C [15]: 0.2%
- viability, T/C [16]: 1.89%
- viability, T/C (second compound 3.16 µM, first compound 0.000949 µM): 5.74%
- viability, T/C (second compound 3.16 µM, first compound 0.003 µM): 2.25%
- viability, T/C [17]: 1.98%
- viability, T/C [18]: 0.31%
- viability, T/C [19]: 0.19%
- viability, T/C [20]: 2.14%
- viability, T/C (second compound 10 µM, first compound 0.000949 µM): 4.58%
- viability, T/C (second compound 10 µM, first compound 0.003 µM): 2.17%
- viability, T/C [21]: 0.45%
- viability, T/C [22]: 0.32%
- viability, T/C [23]: 5.38%
- viability, T/C [24]: 2.98%

Structure (SMILES): NC(=O)C(=Cn1cnc(-c2cc(C(F)(F)F)cc(C(F)(F)F)c2)n1)c1cncnc1 + CN1CCN(c2cc(C(=O)Nc3cc4cc(-c5cnn(C)c5)ccc4cn3)ccn2)CC1
- IC50 (second compound 0.0316 µM): 907 nM
- IC50 (second compound 0.1 µM): 365 nM
- IC50 (second compound 0.316 µM): < 9.49 nM
- IC50 (second compound 1 µM): < 9.49 nM
- IC50 (second compound 3.16 µM): < 9.49 nM
- IC50 (second compound 10 µM): < 9.49 nM
- viability, T/C [1]: 99.5%
- viability, T/C [2]: 100%
- viability, T/C [3]: 71.5%
- viability, T/C [4]: 58.4%
- viability, T/C (second compound 0.0316 µM, first compound 0.949 µM): 59.3%
- viability, T/C (second compound 0.0316 µM, first compound 3 µM): 30%
- viability, T/C [5]: 67.1%
- viability, T/C [6]: 64.7%
- viability, T/C [7]: 60.4%
- viability, T/C [8]: 52.1%
- viability, T/C (second compound 0.1 µM, first compound 0.949 µM): 38.6%
- viability, T/C (second compound 0.1 µM, first compound 3 µM): 17%
- viability, T/C [9]: 23.6%
- viability, T/C [10]: 24%
- viability, T/C [11]: 20.3%
- viability, T/C [12]: 12.3%
- viability, T/C (second compound 0.316 µM, first compound 0.949 µM): 5.84%
- viability, T/C (second compound 0.316 µM, first compound 3 µM): 1.04%
- viability, T/C [13]: 2.31%
- viability, T/C [14]: 2.24%
- viability, T/C [15]: 4.13%
- viability, T/C [16]: 2.36%
- viability, T/C (second compound 1 µM, first compound 0.949 µM): 1.39%
- viability, T/C (second compound 1 µM, first compound 3 µM): 0.76%
- viability, T/C [17]: 2.18%
- viability, T/C [18]: 4.18%
- viability, T/C [19]: 3.49%
- viability, T/C [20]: 1.2%
- viability, T/C (second compound 3.16 µM, first compound 0.949 µM): 0.81%
- viability, T/C (second compound 3.16 µM, first compound 3 µM): 1.01%
- viability, T/C [21]: 2.14%
- viability, T/C [22]: 1.92%
- viability, T/C [23]: 1.56%
- viability, T/C [24]: 1.44%
- viability, T/C (second compound 10 µM, first compound 0.949 µM): 2%
- viability, T/C (second compound 10 µM, first compound 3 µM): 0.3%

Structure (SMILES): CC1COCCN1c1cc(C2(S(C)(=N)=O)CC2)nc(-c2ccnc3[nH]ccc23)n1 (stereo unspecified) + CN1CCN(c2cc(C(=O)Nc3cc4cc(-c5cnn(C)c5)ccc4cn3)ccn2)CC1
- IC50 (second compound 0.0316 µM): 1820 nM
- IC50 (second compound 0.1 µM): 701 nM
- IC50 (second compound 0.316 µM): < 31.6 nM
- IC50 (second compound 1 µM): < 31.6 nM
- IC50 (second compound 3.16 µM): < 31.6 nM
- IC50 (second compound 10 µM): < 31.6 nM
- viability, T/C (second compound 0.0316 µM, first compound 0.0316 µM): 98.2%
- viability, T/C (second compound 0.0316 µM, first compound 0.1 µM): 103%
- viability, T/C (second compound 0.0316 µM, first compound 0.316 µM): 79.5%
- viability, T/C (second compound 0.0316 µM, first compound 1 µM): 65.8%
- viability, T/C (second compound 0.0316 µM, first compound 3.16 µM): 36.7%
- viability, T/C (second compound 0.0316 µM, first compound 10 µM): 25.6%
- viability, T/C (second compound 0.1 µM, first compound 0.0316 µM): 66.9%
- viability, T/C (second compound 0.1 µM, first compound 0.1 µM): 77.2%
- viability, T/C (second compound 0.1 µM, first compound 0.316 µM): 67%
- viability, T/C (second compound 0.1 µM, first compound 1 µM): 41.8%
- viability, T/C (second compound 0.1 µM, first compound 3.16 µM): 31%
- viability, T/C (second compound 0.1 µM, first compound 10 µM): 23.6%
- viability, T/C (second compound 0.316 µM, first compound 0.0316 µM): 24.6%
- viability, T/C (second compound 0.316 µM, first compound 0.1 µM): 29.2%
- viability, T/C (second compound 0.316 µM, first compound 0.316 µM): 22.1%
- viability, T/C (second compound 0.316 µM, first compound 1 µM): 21.4%
- viability, T/C (second compound 0.316 µM, first compound 3.16 µM): 17.4%
- viability, T/C (second compound 0.316 µM, first compound 10 µM): 15.1%
- viability, T/C (second compound 1 µM, first compound 0.0316 µM): 3.95%
- viability, T/C (second compound 1 µM, first compound 0.1 µM): 3.37%
- viability, T/C (second compound 1 µM, first compound 0.316 µM): 3.9%
- viability, T/C (second compound 1 µM, first compound 1 µM): 3.84%
- viability, T/C (second compound 1 µM, first compound 3.16 µM): 2.35%
- viability, T/C (second compound 1 µM, first compound 10 µM): 2.79%
- viability, T/C (second compound 3.16 µM, first compound 0.0316 µM): 4.84%
- viability, T/C (second compound 3.16 µM, first compound 0.1 µM): 4.43%
- viability, T/C (second compound 3.16 µM, first compound 0.316 µM): 4.15%
- viability, T/C (second compound 3.16 µM, first compound 1 µM): 3.73%
- viability, T/C (second compound 3.16 µM, first compound 3.16 µM): 3.53%
- viability, T/C (second compound 3.16 µM, first compound 10 µM): 4.26%
- viability, T/C (second compound 10 µM, first compound 0.0316 µM): 4.2%
- viability, T/C (second compound 10 µM, first compound 0.1 µM): 3.8%
- viability, T/C (second compound 10 µM, first compound 0.316 µM): 4.37%
- viability, T/C (second compound 10 µM, first compound 1 µM): 3.26%
- viability, T/C (second compound 10 µM, first compound 3.16 µM): 4.39%
- viability, T/C (second compound 10 µM, first compound 10 µM): 2.79%
